One assay has as its target T1, HIV-1-Protease (Human immunodeficiency virus type 1 group M subtype B, UniProt P04585).
T1 construct: Gereinigte HIV-Protease wurde mit synthetischem Peptid
The assay is described as follows: HIV-specific protease enzyme test (cleavage of synthetic peptide by purified HIV protease, RP-HPLC analysis). It counts as biochemical. As to conditions: synthetic peptide substrate imitating Gag precursor cleavage site; for IC50: read-out: HIV-1-Protease-Inhibition IC50. The text has this: Es wurde überraschend gefunden, daß die Verbindungen der allgemeinen Formel (I) eine außerordentlich starke Wirkung gegen Retroviren besitzen. Dies wird mit einem HIV-spezifischen Protease-Enzymtest belegt.
Die Ergebnisse der unten aufgeführten Beispiele wurden nach dem in den folgenden Literaturangaben [vgl. Hansen, J., Billich, S., Schulze, T., Sukrow, S. and Mölling, K. (1988), EMBO Journal, Vol, 7, No. 6, pp. 1785 - 1791] beschriebenen HIV-Testsystem ermittelt: Gereinigte HIV-Protease wurde mit synthetischem Peptid, das eine Schnittstelle im Gag-Precursor-Protein imitiert und eine in vivo-Spaltstelle der HIV-Protease darstellt, inkubiert. Die entstandenen Spaltprodukte des synthetischen Peptids wurden über Reverse Phase High Performance Liquid Chromatography (RP-HPLC) analysiert. Die angegebenen IC50Werte beziehen sich auf die Substanzkonzentration, die unter den oben aufgeführten Testbedingungen eine 50%ige Hemmung der Protease-Aktivität bewirkt.

In a further assay the test system is HIV. The assay is described as follows: HIV infection in cell culture (PBL), inhibition of virus-induced syncytia formation. As to conditions: Human immunodeficiency virus 1, Lymphocyte, 72 h; HIV-infected normal human blood lymphocytes (PBL's); 50% suppression of virus-induced syncytia, read microscopically day 3 to 6 after infection. It counts as cell-based. How it is done: Außerdem zeigten die erfindungsgemäßen Verbindungen Wirkung in Lentivirus infizierten Zellkulturen. Dies konnte am Beispiel des HIV-Virus gezeigt werden.
HIV-Infektion in Zellkultur
Der HIV-Test wurde mit geringen Modifikationen nach der Methode von Pauwels et al. [vgl. Journal of Virological Methods 20, (1988), 309-321] durchgeführt.
Normale menschliche Blutlymphozyten (PBL's) wurden über Ficoll-Hypaque angereichert und im RPMI 1640, 20% fötales Kälberserum mit Phythaemagglutinin (90 µg/ml) und Interleukin-2 (40 U/ml) stimuliert. Zur Infektion mit dem infektiösen HIV wurden PBL's pelletiert und das Zellpellet wurde anschließend in 1 ml HIV-Virusadsorptionslösung suspendiert und 1 Stunde bei 37°C inkubiert.
Die Virusadsorptionslösung wurde zentrifugiert und das infizierte Zellpellet in Wachstumsmedium aufgenommen, so daß 1 x 10^5 Zellen pro ml eingestellt waren. Die derart infizierten Zellen wurden zu 1 x 10^4 Zellen/Napf in die Näpfe von 96er Mikrotiterplatten pipettiert.
Die erste vertikale Reihe der Mikrotiterplatte enthielt nur Wachstumsmedium und Zellen, die nicht infiziert, aber ansonsten genauso wie oben beschrieben, behandelt worden waren (Zellkontrolle). Die zweite vertikale Reihe der Mikrotiterplatte erhielt nur HIV-infizierte Zellen (Viruskontrolle) in Wachstumsmedium. Die übrigen Näpfe enthielten die erfindungsgemäßen Verbindungen in unterschiedlichen Konzentrationen, ausgehend von den Näpfen der 3. vertikalen Reihe der Mikrotiterplatte, von der die Prüfsubstanzen in 2er Schritten 2^10fach verdünnt wurden.
Die Testansätze wurden so lange bei 37°C inkubiert, bis in der unbehandelten Viruskontrolle die für das HIV typische Syncytienbildung auftrat (zwischen Tag 3 und 6 nach Infektion), die dann mikroskopisch ausgewertet wurde. In der unbehandelten Viruskontrolle resultierten unter diesen Testbedingungen etwa 20 Syncytien, währen die unbehandelte Zellkontrolle keine Syncytien aufwies. […]

The record followed here is patent EP0720987A1, “Acylated pseudopeptides containing trifluoromethyl substituted 2-azabicyclooctane” (BAYER AG, priority 1995, dated 1996).

As usually defined, the IC50 is the concentration that gives 50% inhibition.

With `CCOC(=O)CCC(=O)O[C@H](CN1[C@H](C(F)(F)F)C[C@@H]2CCC[C@@H]21)[C@H](Cc1ccccc1)NC(=O)[C@H](CC(N)=O)NC(=O)c1ccc2ccccc2n1` [Beispiel 1, (2R,3S)-3-(Chinolin-2-yl-L-asparaginyl)-amino-1-[(S,S,S)-3-trifluormethyl-2-azabicylco[3.3.0]octan-2-yl}-2-(3-ethoxycarbonyl)propionyl-4-phenylbutan], the IC50 at HIV-1-Protease amounted to 320000 nM; in the assay on HIV, 108 nM.

Regarding `CC(=O)O[C@H](CN1[C@H](C(F)(F)F)C[C@@H]2CCC[C@@H]21)[C@H](Cc1ccccc1)NC(=O)[C@H](CC(N)=O)NC(=O)c1cnc2cc(C)c(C)cc2n1` [Beispiel 3], at HIV-1-Protease, the “HIV-1-Protease-Inhibition IC95” value is on record as 2,5 x 10^-8 Mol/l and the IC50 was 1.5 nM. Also, the IC50 with HIV turned out to be 120 nM.

On to `CC(=O)O[C@H](CN1[C@H](C(F)(F)F)C[C@@H]2CCC[C@@H]21)[C@H](Cc1ccccc1)NC(=O)[C@H](CC(N)=O)NC(=O)c1ccc2ccccc2n1` [Beispiel 2], for which, at HIV-1-Protease, the “HIV-1-Protease-Inhibition IC95” value is on record as 3,3 x 10^-5 Mol/l and the IC50 is 1100 nM. Moreover, inhibition in the assay on HIV was half-maximal at 612 nM (IC50).
